These results are taken from paper PMC10819888, “Benzimidazole-Based Derivatives as Apoptotic Antiproliferative Agents: Design, Synthesis, Docking, and Mechanistic Studies” (Molecules, 2024).

Each structure is given as a SMILES string.

In this assay the test system is Bax. As to the kind of experiment: Bax activation assay. In kind it is cell-based, human. The following applies: PC-3 cell line. As for the experimental part: For more details, see Supplementary Materials.
4.2.5. Bax activation assay
Bring all reagents, except the human Bax-α Standard, to room temperature for at least 30 minutes prior to opening. The human Bax -α Standard solution should not be left at room temperature for more than 10 minutes. All standards, controls and samples should be run in duplicate. Refer to the Assay Layout Sheet to determine the number of wells to be used and put any remaining wells with the desiccant back into the pouch and seal the ziploc. Store unused wells at 4 °C. Pipet 100 μL of Assay Buffer into the S0 ( 0 pg/mL standard) wells. Pipet 100 μL of Standards #1 through #6 into the appropriate wells. Pipet 100 μL of the Samples into the appropriate wells. Tap the plate gently to mix the contents. Seal the plate and incubate at room temperature on a plate shaker for 1 hour at ~500 rpm. Empty the contents of the wells and wash by adding 400 μL of wash solution to every well. Repeat the wash 4 more times for a total of 5 washes. After the final wash, empty or aspirate the wells and firmly tap the plate on a lint fr ee paper towel to remove any remaining wash buffer. Pipet 100 μL of yellow Antibody into each well, except the Blank. Seal the plate and incubate at room temperature on a plate shaker for 1 hour at ~500 rpm. Empty the contents of the wells and wash by addi ng 400 μL of […]
the final wash, empty or aspirate the wells and firmly tap the plate on a lint free paper towel to remove any remaining wash buffer. Add 100 μL of blue Co njugate to each well, except the Blank. Seal the plate and incubate at room temperature on a plate shaker for 30 minutes at ~500 rpm. Empty the contents of the wells and wash by adding 400 μL of wash solution to every well. Repeat the wash 4 more times for a total of 5 washes .
After the final wash, empty or aspirate the wells and firmly tap the plate on a lint free paper towel to remove any remaining wash buffer. Pipet 100 μL of Substrate Solution into each well. Incubate for 30 minutes at room temperature on a plate shaker at ~500 rpm. Pipet 100 μL Stop Solution to each well. Blank the plate reader against the Blank wells, read the optical density at 450 nm. Calculate the average net Optical Density (OD) bound for each standard and sample by subtracting the average Blank OD from the average OD for each standard and sample. Using linear graph paper, plot the Average Net OD for each standard versus Bax concentration in each standard.
Approximate a straight line through the points. The concentration of Bax in the unknowns can be determined by interpolation. […]

Turning to `O=C(NN=Cc1ccc(Cl)cc1)c1ccc2[nH]c(-c3ccc(Cl)cc3)nc2c1` [Compound 4e, N′-(4-Chlorobenzylidene)-2-(4-chlorophenyl)-1H-benzimidazole-5-carbohydrazide], the “Bax Conc” value came out at 220 pg/mL, the “Bax increase compared to untreated PC-3 cancer cells” value amounted to 31 fold and the Bax level is 220 pg/mL. Moreover, for the setting “vs control”, the “Bax Fold Change” value came out at 31.
For the molecule `O=C(NN=Cc1ccc([N+](=O)[O-])cc1)c1ccc2[nH]c(-c3ccc(Cl)cc3)nc2c1` [Compound 4c, N′-(4-Nitrobenzylidene)-2-(4-chlorophenyl)-1H-benzimidazole-5-carbohydrazide], the “Bax Conc” value came to 185 pg/mL, the “Bax increase compared to untreated PC-3 cancer cells” value stood at 26 fold and the Bax level is given as 185 pg/mL.
